According to patent US20100146646A1, “METHOD OF MONITORING RETINOPATHY” (priority 2007, published 2010):
“Also recorded” adds a separate entry of the source.

Experiments:
[1] = tested on: transgenic GFAP-GFP mice (glia of optic disc and central retina); experiment: In vivo scanning laser opthalmoscope (SLO) imaging of GFP fluorescence in the optic disc after neurotoxicant injection; design: species or system mouse; conditions: for time point of maximum GFP fluorescence around the fringe of the optic disc: adult GFAP-GFP mice, ip neurotoxicant, SLO imaging over 14 days; for retinal gliosis: neurotoxicant-treated GFAP-GFP mice, summary statement
Text: Transgenic GFAP-GFP mice: The generation and genotyping of the transgenic GFAP-GFP mice were done as previously described (Zhuo et al., 1997). Adult mice (8-10 weeks old) in the FVB/N background were used in the present study. Animal husbandry was provided by National University of Singapore animal holding unit. The experimental protocol covering the current study was approved by the Institutional Animal Care and Use Committee.
(§1) The test compounds 2′-CH3-MPTP (M103), KA (K0250) and IDPN (317306) were purchased from Sigma-Aldrich (St. Louis, Mo., USA). Each mouse in the treatment group received either 4 intraperitoneal (ip) injections of 2′-CH3-MPTP (15 mg/kg in saline, ip, once every 2 hours), a single injection of KA (25 mg/kg in saline, ip) or 3 injections of IDPN (500 mg/kg, ip, once daily). For each neurotoxicant-treated group (n=3), saline was used as a vehicle for the control group (n=3). Retinal imaging was subsequently performed over a period of 14 days.
Preparation of Animals: Mice were Anaesthetized by Ip Injections with 0.15 ml/10 g body weight of Avertin (1.5% 2,2,2-tribromoethanol; T48402) purchased from Sigma-Aldrich (St. Louis, Mo., USA), and their pupils dilated with a drop of 0.5% Cyclogyl® sterile ophthalmic solution (cyclopentolate hydrochloride, Alcon®, Puurs, Belgium). Custom-made PMMA hard contact lenses (from Cantor & Nissel (Northamptonshire, UK) were used to correct optical aberration and to avoid dehydration of the mouse eyes. Careful examination by an eye specialist before scanning laser opthalmoscope imaging ruled out the presence of any corneal or lens opacities.
Scanning laser opthalmoscope (SLO) imaging: For the work described here, the second version of Heidelberg Retina Angiograph (HRA II) scanning laser opthalmoscope (Heidelberg Engineering, Dossenheim, Germany) modified for use on mice was employed. The scanning laser opthalmoscope (SLO) is a fundus imaging technique based on the scanning of the fundus with a laser beam from a point source, while the reflected light is detected by a photomultiplier. Incident and reflected light follow a co-axial path. Therefore, more light can pass through small eyes than with conventional fundus cameras. Several reports of SLO imaging in rats (Hossain et al., 1998; Khoobehi and Peyman, 1999; Cordeiro et al., 2004; Genevois et al., 2004) and mice (Jaissle et al., 2001; Xu et al., 2003) have been published, with the latest study by (Seeliger et al., 2005) and (Paques et al., 2006) in evaluating mouse fundus with the first version of the HRA (or HRA I). The HRA II features the two Argon lasers in the short wavelength range (488 nm and 514 nm) and two infrared diode lasers in the long wavelength range (795 nm and 830 nm). The 488 and 795 nm lasers are used for fluorescein and indocyanine green angiography respectively. Appropriate barrier filters of 500 nm and 800 nm, respectively, remove the reflected light with unchanged wavelength and allow only the light emitted by the dye upon stimulation to pass through. The finest definition is 768×768 pixels at an optical resolution of 10 μm/pixel and coupled with three fields of view (nominal values of 15°, 20° and 30°). The focus is adjustable over a +12/−12 diopters range using step increments of 0.25 diopters. A video acquisition mode (48 ms to 96 ms per image) is available. Within any area of interest, a stack of tomographic images (z-scans) up to a maximum depth of 8 mm can be automatically acquired.

[2] = tested on: transgenic GFAP-GFP mice (hippocampus, substantia nigra, striatum, olfactory bulb); experiment: Brain cryosections: transgenic GFP and GFAP immunohistochemistry (gliosis); assay type: in vivo, mouse
Experimental: as §1
Retina wholemount and immunohistochemistry (IHC): After perfusing the mice with 1×PBS, followed by 4% fresh paraformaldehyde (in 1×PBS, pH 7.4), the brains were harvested and the eyes enucleated. The eyes were fixed immediately in 4% paraformaldehyde overnight at 4° C., after which they were dissected at the equator with the lens and vitreous removed. The retina was then dissected free from the choroid and sclera and whole mounted on a glass slide. Whole retina was mounted with Vectorshield mounting medium for fluorescence (Vector Laboratories, Inc., Burlingame, Calif., USA; H1000). The brains were first fixed in 4% paraformaldehyde for 4 hr at 4° C. and soaked in 30% sucrose at 4° C. overnight. The processed brain tissues were embedded in OTC freezing medium for sectioning on a cryostat (Leica Microsystems, Nussloch GmbH; CM-3050S). Coronal cryosections (10 μm) of the hippocampus (bregma −1.94 mm, interaural 1.86 mm), SNpc (bregma −3.16 mm, interaural 0.64 mm) and olfactory bulb (bregma 4.28 mm, interaural 8.08 mm) according to the Atlas of Mouse Brain (Franklin and Paxinos, 2001), together with the retina wholemounts were used for IHC using rabbit polyclonal antibodies (in 1:200 dilution) against GFAP (Dako, Z0334). Sections of the SNpc and striatum (bregma 0.62 mm, interaural 4.42 mm) were used for IHC using rabbit polyclonal antibodies (in 1:200 dilution) against tyrosine hydroxylase (TH; Chemicon, Calif., USA; Ab-152). The bound primary antibodies on the tissue sections were stained with a goat IgG conjugated to Texas-red (Abeam, Ab7088) at 1:100 dilution for 2 hr at room temperature, and visualized using confocal microscopy (LSM 510 META, Carl Zeiss Microimaging GmbH, Jena Germany).

[3] = tested on: transgenic GFAP-GFP mice (SNpc and striatum); experiment: Brain cryosections: tyrosine hydroxylase (TH) immunohistochemistry; assay type: in vivo, mouse; conditions: a day after administration, vs saline
Experimental: as §1
(§2) Retina wholemount and immunohistochemistry (IHC): After perfusing the mice with 1×PBS, followed by 4% fresh paraformaldehyde (in 1×PBS, pH 7.4), the brains were harvested and the eyes enucleated. The eyes were fixed immediately in 4% paraformaldehyde overnight at 4° C., after which they were dissected at the equator with the lens and vitreous removed. The retina was then dissected free from the choroid and sclera and whole mounted on a glass slide. Whole retina was mounted with Vectorshield mounting medium for fluorescence (Vector Laboratories, Inc., Burlingame, Calif., USA; H1000). The brains were first fixed in 4% paraformaldehyde for 4 hr at 4° C. and soaked in 30% sucrose at 4° C. overnight. The processed brain tissues were embedded in OTC freezing medium for sectioning on a cryostat (Leica Microsystems, Nussloch GmbH; CM-3050S). […]

[4] = tested on: transgenic GFAP-GFP mice (whole-mount retina); experiment: Retina whole-mount: transgenic GFP and GFAP immunohistochemistry; assay type: in vivo, mouse; conditions: 7 days after a single ip injection (25 mg/kg), vs saline
Experimental: as §1, §2

retinal Müller cells = conditions: injected into the vitreous of the eye; cited from earlier work
[5] = tested on: neuronal and glial cells in the retina; conditions: cited from earlier work
[6] = a day after administration, vs saline
[7] = 7 days after administration, vs saline

Cc1ccccc1C1=CCN(C)CC1 [2′-CH3-MPTP, 1-methyl-4(2′-methylphenyl)-1,2,3,6-tetrahydropyridine]
time point of maximum GFP fluorescence around the fringe of the optic disc [1]: 1 days
time of maximal increase in GFP expression in the optic disc ([1]; after administration of the neurotoxicant (4 x 15 mg/kg ip)): 24 h
retinal gliosis [1]: elicits retinal gliosis
GFP / gliosis in striatal astrocytes [2, 6]: acute gliosis; also recorded: substantial GFP increase
gliosis in the substantia nigra [2, 6]: gliosis occurs extensively
GFP and GFAP expression in activated astrocytes of the brain ([2]; a day after systemic administration): an increase in GFP and to a lesser extent, GFAP expression
TH-immunoreactive midbrain dopaminergic neurons in the SNpc [3]: observable tyrosine hydroxylase (TH) depletion; also recorded: marked depletion
level of TH expression in the striatum [3]: no change in TH expression could be visually observed; also recorded: no detectable changes

N#CCCNCCC#N [IDPN, 3,3-iminodipropionitrile]
time point of maximum GFP fluorescence around the fringe of the optic disc [1]: 7 days
retinal gliosis [1]: elicits retinal gliosis
gliosis / GFP-positive astrocytes co-localizing with GFAP-immunoreactive cells in the glomerular layer (GL) of the olfactory bulb ([2]; 7 days after administration (3 x 500 mg/kg ip), vs saline): acute gliosis; also recorded: markedly more GFP-positive astrocytes
GFAP-positive cells in the granular cell layer (GCL) of the olfactory bulb [2, 7]: strong increase of GFAP-positive cells

C=C(C)[C@H]1CN[C@H](C(=O)O)[C@H]1CC(=O)O [KA, kainic acid]
time point of maximum GFP fluorescence around the fringe of the optic disc [1]: 7 days
retinal gliosis [1]: elicits retinal gliosis
gliosis in the nerve fiber layer (NFL) of whole-mount retina (transgenic GFP and endogenous GFAP) [4]: severe gliosis
level of GFP and GFAP expression in the entire hippocampus area (CA1, CA3, dentate gyrus) ([2]; 7 days after administration, compared to saline control): extremely high level of GFP and GFAP expression
gliosis in astrocytes of the hippocampus (GFP and GFAP) [2, 7]: severe reactive gliosis
GFAP in the retinal Müller cells (retinal Müller cells): up-regulation of GFAP

CN1CC=C(c2ccccc2)CC1 [MPTP, 1-methyl-4-phenyl-1,2,3,6-tetrahydropyrine]
GFAP immunoreactivity of the glial cells of the retina ([5]; several days after injection): increased
microglia in the inner outer retina ([5]; within a week after systemic injection in mice): microglia activation was observed
